The values that follow come from US20070111981A1, “New (hetero)aryl compounds with MCH antagonistic activity and medicaments comprising these compounds” (priority 2005, published 2007).

The target of the first data set is T1, hMCH-1R (Homo sapiens, UniProt Q99705).
T1 construct: expressed in transfected cells
T1 sequence (Q99705 whole entry): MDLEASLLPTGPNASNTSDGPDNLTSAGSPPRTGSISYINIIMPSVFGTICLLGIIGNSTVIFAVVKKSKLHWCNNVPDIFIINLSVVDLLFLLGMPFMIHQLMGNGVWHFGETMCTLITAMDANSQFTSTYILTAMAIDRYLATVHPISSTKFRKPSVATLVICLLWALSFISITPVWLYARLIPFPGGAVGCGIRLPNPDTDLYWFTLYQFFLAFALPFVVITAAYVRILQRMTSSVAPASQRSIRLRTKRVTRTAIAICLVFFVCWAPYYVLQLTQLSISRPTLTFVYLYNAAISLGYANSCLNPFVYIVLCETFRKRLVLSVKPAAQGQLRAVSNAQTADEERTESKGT
Nature of the data set: MCH-1 receptor binding test (125I-MCH binding to membranes of hMCH-1R transfected CHO/Galpha16 cells). Particulars: displacement of 125I-MCH, hMCH-1R CHO/Galpha16 membranes. On the procedure: MCH-1 Receptor Binding Test
Method: MCH binding to hMCH-1R transfected cells
Test cell: hMCH-1R stably transfected into CHO/Galphal 6 cells
Membranes from CHO/Galphal6 cells stably transfected with human hMCH-1R are resuspended using a syringe (needle 0.6×25 mm) and diluted in test buffer (50 mM HEPES, 10 mM MgCl2, 2 mM EGTA, pH 7.00; 0.1% bovine serum albumin (protease-free), 0.021% bacitracin, 1 μg/ml aprotinin, 1 μg/ml leupeptin and 1 μM phosphoramidone) to a concentration of 5 to 15 μg/ml.
After the incubation the reaction is filtered using a cell harvester through 0.5% PEI treated fibreglass filters (GF/B, Unifilter Packard). The membrane-bound radioactivity retained on the filter is then determined after the addition of scintillator substance (Packard Microscint 20) in a measuring device (TopCount of Packard).
The non-specific binding is defined as bound radioactivity in the presence of 1 micromolar MCH during the incubation period.
The analysis of the concentration binding curve is carried out on the assumption of one receptor binding site.
The term IC50 denotes the concentration that inhibits the measured activity by half. Compound `COc1ccc(-c2ccc(CCCNc3ccc(CN4CCC(NC(C)=O)C4)cc3)nn2)cc1` (centres unmarked) [Example 3.30, N-[1-(4-{3-[6-(4-Methoxy-phenyl)-pyridazin-3-yl]-propylamino}-benzyl)-pyrrolidin-3-yl]-acetamide] had a half-inhibitory concentration (IC50) of 79 nM. Take `COc1ccc(-c2ccc(NCCCc3ccc(CN4CCC(O)CC4)cc3)nn2)cc1` [Example 9.1, 1-(4-{3-[6-(4-Methoxy-phenyl)-pyridazin-3-ylamino]-propyl}-benzyl)-piperidin-4-ol]: the IC50 came out at 174 nM. The same measure, in the same setting: the result for `CCN(CC)CCOc1ccc(OCCOc2ccc(I)cc2Cl)cc1Cl` [Example 12.1, (2-{2-Chloro-4-[2-(2-chloro-4-iodo-phenoxy)-ethoxy]-phenoxy}-ethyl)-diethyl-amine] reads 172 nM.

Test system in the next data set: not given
Assay: not given
Details: not given
The term melting point denotes the temperature of the solid-liquid transition. On to `CN(C)Cc1ccc(NCCCc2ccc(-c3ccc(Cl)cc3)cc2)cc1` [Example 4.1, [3-(4′-Chloro-biphenyl-4-yl)-propyl]-(4-dimethylaminomethyl-phenyl)-amine], for which the melting point lay in the range of 85 to 90 °C. As to `COc1ccc(-c2ccc(CCCNc3ccc4c(c3)CN(C)CC4)nn2)cc1` [Example 19.1, {3-[6-(4-Methoxy-phenyl)-pyridazin-3-yl]-propyl}-(2-methyl-1,2,3,4-tetrahydro-isoquinolin-7-yl)-amine], the melting point fell in the range of 130 to 133 °C. Same read-out and setting: then `Oc1ccc(-c2ccc(CCCNc3ccc(CN4CCC(O)(C(F)(F)F)CC4)cc3)nn2)cc1` [Example 21.1], with 200 to 204 °C; and `CC1CCN(Cc2ccc(NCCCc3ccc(-c4ccc(Cl)cc4)cc3)cc2)CC1` [Example 1.1, [3-(4′-Chloro-biphenyl-4-yl)-propyl]-[4-(4-methyl-piperidin-1-ylmethyl)-phenyl]-amine], with 69 to 71 °C. Same read-out and setting: the result for `OC1(C(F)(F)F)CCN(Cc2ccc(NCCCc3ccc(-c4ccc(Cl)cc4)cc3)nc2)CC1` [Example 5.1] reads 170 to 172 °C.
